Data as given in the METLIN SMRT retention time set (Domingo-Almenara et al. 2019).

assay: gradient 5% acetonitrile 3 min, to 50% in 2 min, to 85% in 15 min, held 3 min, 100 µL/min; details: column: Zorbax Extend-C18 2.1 x 50 mm; eluents: water / acetonitrile, 0.1% formic acid
Method in brief: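 Using water and acetonitrile that each contained 0.1% formic acid, mixtures of ~100 pure standards were separated at 100 μL/min on a Zorbax Extend-C18 column (2.1 × 50 mm, 1.8 μm). The HPLC fed a quadrupole time-of-flight mass spectrometer working in positive and negative ionization mode, with dead and dwell volumes of 40 μL and 900 μL. Data were acquired over 3 months. Retention time was read from computationally picked adduct peaks after manual inspection of each.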

RP-LC retention time [s] | Structure (SMILES)
1080 | Brc1cccc(-c2nnc(Cc3nc(-c4ccccc4)no3)o2)c1
675 | Cc1nnc(-c2cccnc2N2CCN(C(=O)c3ccsc3)CC2)o1
952 | Cc1ccc(C)c(N2CCN(c3ccnc(SCC(=O)Nc4cc(Cl)ccc4C)n3)CC2)c1
758 | CCOC(=O)N1CCC(NS(=O)(=O)CCCOc2ccc(F)cc2)CC1
984 | CC(C)N1C(=O)C(C)(C(=O)NCc2ccc(F)cc2)Oc2cccnc21 (centres undefined)
1170 | CCCC(=O)N1CCc2c([nH]c3ccccc23)C1c1ccc(SC)cc1 (centres undefined)
614 | CC1CCN(CCNC(=O)Cn2c(=O)n(-c3ccc(F)cc3)c3ncccc32)CC1
788 | CCN1C(=O)CCc2cc(NS(=O)(=O)c3cccc(C)c3)ccc21
988 | CCS(=O)(=O)c1ccc2c(c1)N(Cc1nc(-c3ccc(Br)cc3)no1)C(=O)CO2
674 | Cc1ccc2oc(-c3nnc(C(=O)NCCN4CCC(C)CC4)o3)c(C)c2c1
1100 | Cn1cc(S(=O)(=O)N2CCCCC2)cc1C(=O)Nc1ccc(F)c(Cl)c1
1010 | Cc1c(-c2noc(-c3ccc4c(c3)OCO4)n2)nnn1Cc1ccccc1
1020 | CCCNc1nc(-c2cccc(Cl)c2)cs1
666 | NC(=O)C1CCN(C(=O)c2cc3cccnc3n(Cc3ccccc3F)c2=O)CC1
664 | Cc1c(C(=O)N2CCC(C)CC2)c(S(=O)(=O)N2CCN(c3ccccn3)CC2)c(C)n1C
583 | COc1ccc(-c2nnc3n2CCN(Cc2cnn(C)c2C)C3)cc1
646 | O=C(c1ccc2ncnc(N3CCCC3)c2c1)N1CCN(c2ccccc2)CC1
649 | Cc1ccc(NC(=O)CN2CCc3c(c(=O)c4cc(C)ccc4n3C)C2)cc1
864 | COc1cc(F)ccc1-c1ccnc2nc(C3CCC3)nn12
588 | Cc1c(-c2ccnc(N3CCN(Cc4ccccc4)CC3)n2)cnc2ncnn12
853 | O=C(NCc1ccco1)C1CCN(Cc2cc3ccccc3n2Cc2cccc(Cl)c2)CC1
920 | Cn1nc(-c2nc(C3CC3)no2)c2c1CCN(S(=O)(=O)c1cccc(F)c1)C2

RP-LC retention time [s] | Structure (SMILES)
598 | CCc1nc2cc(N3CCC(C(=O)NCc4cccnc4)CC3)cnc2nc1CC
755 | C[C@H]1CN(C(=O)Cc2c[nH]c3ccccc23)C[C@@H]1c1nc(-c2cccnc2)no1
670 | O=S(=O)(C1CC1)N1CCC(c2nc(-c3ccncc3)no2)C1 (centres undefined)
1140 | Cc1ccc(S(=O)(=O)Cc2cccc(-c3nc(-c4cccc(-c5ccnn5C)c4)no3)c2)cc1
699 | O=C(CSc1nc2ccccc2[nH]c1=O)Nc1ccccc1
1180 | O=C(C1CCCN(c2nccnc2Oc2ccccc2)C1)N1CCN(c2cccc(Cl)c2)CC1 (centres undefined)
914 | CCOc1ccc(S(=O)(=O)N2CCC(C(=O)NCc3csc(-c4cccs4)n3)CC2)cc1
732 | O=S(=O)(Cc1ccccc1F)N1CCCC(Cn2c(C3CC3)nc3cccnc32)C1 (centres undefined)
895 | Cc1cc(C)c2sc(NC(=O)C3=COCCO3)nc2c1
869 | CC(=O)Nc1c(C)noc1/C=C/c1ccc(S(=O)(=O)N2CCC(C)CC2)s1
800 | Cc1ccc(C)c(NC(=O)Cn2c(C)nc3onc(C)c3c2=O)c1
591 | O=C(CN1C(=O)CCC1=O)N1CCC(c2noc(-c3cnccn3)n2)C1 (centres undefined)
759 | CCOc1ccc(-c2nc3ncccn3c2NCc2ccc(F)cc2)cc1
1190 | CCOc1cccc(-c2noc(Cn3c(=O)n(C(C)C)c(=O)c4ccccc43)n2)c1
946 | COC(=O)C1=CN(c2ccc(C)cc2)c2cc(F)ccc2S1(=O)=O
685 | COC(=O)C(Cc1ccccc1)NC(=O)Nc1cccn2c(C)nnc12 (centres undefined)
883 | COc1ccc(-c2cn3c(n2)N(C(=O)c2cccs2)CCC3)cc1
572 | Cc1noc(C)c1CN1CCN(C(=O)c2cc(-c3ccco3)on2)CC1
525 | Cc1cc(C)n(C(CC(=O)O)C(=O)O)n1 (centres undefined)
638 | COc1ccc(C(=O)N2CCc3c(c(C(=O)N4CCCC(C(=O)NC5CC5)C4)nn3C)C2)c(OC)c1 (centres undefined)
656 | O=C(CCC(=O)N1CCOc2ccc(Cl)cc21)N1CCN(c2ccccn2)CC1
639 | Cc1ccc(CNC(=O)C2(C)Cn3nc(C(=O)NCCN(C)C)cc3C(=O)N2C)cc1 (centres undefined)

RP-LC retention time [s] | Structure (SMILES)
713 | COc1ncccc1CNC(=O)NC1CCCCC1
946 | CC1=C(c2ccccc2)S(=O)(=O)N=C1N1CCCN(C(=O)CCC2CCCC2)CC1
968 | CN1C(=O)c2cc(S(=O)(=O)NCc3ccc(Cl)cc3)ccc2Oc2cccnc21
624 | CC1Cn2cc(C(=O)NCCCN3CCOCC3)c(=O)c3c(Cl)ccc(c32)O1 (centres undefined)
579 | O=C(C1CCCC1)N1CC(N(Cc2ccccn2)C(=O)Nc2ccccc2)C1
804 | COc1cc(NC(=O)Cn2c(=O)n(-c3ccccc3)c(=O)c3c2cc(C)n3C)cc(OC)c1
1300 | CCC(C)(C)NS(=O)(=O)c1cc(-c2nc(C(C)(C)C)cs2)cs1
584 | OC1(c2ccccn2)CCOC2(CCN(Cc3cccc(Cl)c3)CC2)C1 (centres undefined)
917 | Cc1oc(C2CCN(C(=O)Nc3cc(F)cc(F)c3)CC2)nc1C(=O)N1CCCC1
632 | O=C1NCCCCCCN(C(=O)c2cnccn2)[C@H]2CCC[C@@H]12
643 | COc1ccc(-c2nc(C)cc(C)c2CNS(=O)(=O)c2ccc(OC)cc2)cc1
1050 | CCOC(=O)c1cc(S(=O)(=O)N2CCCC2C(=O)Nc2cccc(C(F)(F)F)c2)cn1C (centres undefined)
868 | CCOc1ccccc1-c1noc(CN2N=NC3C(=O)N(c4ccc(OC)c(OC)c4)C(=O)C32)n1 (centres undefined)
659 | O=C(NCc1ccc(F)cc1)C1CCN(c2cncnc2N2CCCC2)CC1
659 | CN(C1CCc2nn(CC3CC3)c(=O)n2CC1)S(=O)(=O)c1cccnc1 (centres undefined)
699 | O=c1c2scc(-c3cccc(F)c3)c2ncn1Cc1cccnc1
724 | CCOCc1nc(C2CCCN2C(=O)c2ccsc2)no1 (centres undefined)
917 | COc1ccc(NC(=O)N2CCc3cn(C)c4cccc(c34)C2)cc1Cl
856 | O=C(Cn1ccn2nc(-c3ccccc3)c(CO)c2c1=O)Nc1cccc(Cl)c1
751 | CC(=O)Nc1ccc(-n2cnc(C(=O)N3CCN(c4ccc(Cl)cc4)CC3)c2)nc1
546 | O=C(NC1CC1)C1CCN(C(=O)c2cc(-c3ccncc3)n[nH]2)CC1
964 | Cc1ccc(NC(=O)N2CCCC2c2nc(-c3ccccc3)no2)cc1 (centres undefined)

RP-LC retention time [s] | Structure (SMILES)
982 | Cc1cc(C)n(-c2c3c(nc4c(-c5ccccc5)c(C)nn24)CCC3)n1
852 | O=C(c1cccc(Br)c1)N1CCN(c2cc(-c3ccccc3)[nH]n2)CC1
626 | COc1ccc(NC(=O)Cn2c(N3CCCC3)nc(C)cc2=O)c(OC)c1
747 | Cc1ccn2c(Nc3ccc4c(c3)OCO4)c(-c3cc(Br)ccc3F)nc2c1
1080 | O=C(CN1C(=O)C(C(=O)N2CCCC2)Sc2ccccc21)Nc1cccc(Cl)c1 (centres undefined)
633 | COc1nccnc1N1CCC(NC(=O)c2ccc3cc[nH]c3c2)C1 (centres undefined)
767 | CCS(=O)(=O)N1CCC2(CC1)NC(=O)N(Cc1ccc(Cl)cc1)C2=O
912 | COC(=O)c1cccc(NC(=O)c2cnc(-c3ccc(F)cc3)nc2-c2ccncc2)c1
626 | O=C(NCCN1CCN(C(=O)c2ccc(Br)cc2)CC1)C(=O)NCc1ccco1
923 | Cc1cc(F)ccc1NC(=O)c1n[nH]nc1Nc1ccc(F)cc1
1140 | COc1ccc(-c2noc(-c3ccc(NC(=O)c4cccs4)cc3)n2)cc1
639 | CN1C(=O)CCC2(CNC(=O)c3ccnn3C)CCC=C12 (centres undefined)
762 | Cc1ccc(N2CCC(NC(=O)C(C)C)C2=O)cc1C (centres undefined)
699 | CCOC(=O)c1[nH]c2ccccc2c1NC(=O)c1ccc(N2C(=O)CCC2=O)cc1
959 | COc1ccc(Cl)cc1C(=O)N1CCC2(CC1)N=C(c1ccc(Br)cc1)NO2
592 | CCn1cnc(S(=O)(=O)N2CCC(C(=O)Nc3ccc(C)cn3)CC2)c1
860 | O=C(NCc1csc(-c2cccs2)n1)C1CCN(S(=O)(=O)c2ccccc2F)CC1
1090 | CC1=NS(=O)(=O)N(Cc2ccccc2)C=C1C(=O)OCc1ccccc1
639 | Cc1cc(NC(=O)C2CCN(C(=O)c3c[nH]c4ccccc34)CC2)no1
839 | CN(C)C(=O)C1CCN(c2nc3ccc(-c4ccsc4)nc3s2)CC1
948 | Cc1cccc(C(=O)N2CCCC2c2cc(C(C)C)on2)c1 (centres undefined)
722 | CC(C)n1cnc(S(=O)(=O)N2CCC(C(=O)Nc3ccc4c(c3)OCO4)CC2)c1

Structure (SMILES) | RP-LC retention time [s]
COc1ccc2c(c1)C1(CCN(C(=O)COc3ccc(Cl)cc3)C1)C(=O)N2C (centres undefined) | 878
